From patent publication US9469682B2, “Methods of treatment using natriuretic polypeptides” (Mayo Foundation for Medical Education and Research, priority 2006, dated 2016)

Experiments:
normal dogs = assay: Intravenous bolus of polypeptide in normal dogs (renal, haemodynamic and hormonal effects); assay type: in vivo, dog; settings: 25 μg per kg IV bolus; for mean arterial blood pressure: FIG. 6; for plasma vasopressin levels: FIG. 7; for renal blood flow: FIG. 8; for vasodilatory effects: concluded from mean arterial blood pressure and renal blood flow
Method: Polypeptides with the sequences set forth in FIGS. 1-3 were designed and synthesized. The polypeptide set forth in FIG. 1 is referred to as an ABC-NP polypeptide; the polypeptide set forth in FIG. 2 is referred to as an ABC-NP1 polypeptide; and the polypeptide set forth in FIG. 3 is referred to as a BC-NP2 polypeptide. The biological effects of intravenous ABC-NP, ABC-NP1, or BC-NP2 infusion were tested in normal dogs. Briefly, five normal dogs were infused with 25 μg of ABC-NP, ABC-NP1, or BC-NP2 per kg administered as an IV bolus. Urinary sodium excretion, urine flow, mean arterial blood pressure, plasma vasopressin levels, and renal blood flow were measured as described elsewhere (Chen et al., Am. J. Physiol. Regul. Integr. Comp. Physiol., 288: R1093-R1097 (2005) and Haber et al., J. Clin. Endocrinol. Metab., 29:1349-1355 ([…])). The results were compared to results obtained from dogs treated with 25 μg of BNP per kg administered as an IV bolus.

[1] = system: human cardiac fibroblasts; assay: cGMP generation in cardiac fibroblast cells (competitive RIA); assay type: cell-based; settings: 10^−11 M, 10^−8 M, or 10^−6 M for 10 minutes, FIGS. 9-11
Method: The biological effects of ABC-NP, ABC-NP1, or BC-NP2 on cardiac fibroblast cells were tested in vitro. Briefly, 80-90% confluent cardiac fibroblast cells were incubated in Hank's balanced salt solution (InVitrogen) containing 20 mmol/L N-[2-hydroxyethyl]piperazine-N′[2-ethanesulfonic acid], 0.1% bovine serum albumin, and 0.5 mmol/L 3-isobutyl-1-methylzanthine (Sigma). Treated cells received ANP (10^−6M), BNP (10^−6M), CNP (10^−6M), ABC-NP (10^−11M, 10^−8M, or 10^−6M), ABC-NP1 (10^−11 M, 10^−8 M, or 10^−6 M), or BC-NP2 (10^−11M, 10^−8 M, or 10^−6 M) for 10 minutes. Cells were lysed in 6% TCA and sonicated for 10 minutes. The samples were ether extracted four times in four volumes of ether, dried, and reconstituted in 300 μL cGMP assay buffer. The samples were assayed using a competitive RIA cGMP kit (Perkin-Elmer, Boston, Mass.). Briefly, samples and standards were incubated with 100 μL anti-human cGMP polyclonal antibody and I^125-antigen for 18 hours. cGMP assay buffer was added to the samples, and they were centrifuged for 20 minutes at 2500 rpm. The free fraction was aspirated off; the bound fraction was counted; and concentrations determined Samples were corrected for dilution factors, and values were expressed as pmoles/mL. There is no cross-reactivity with ANP, BNP, or CNP, and there is <0.001% reactivity with cAMP, GMP, GDP, ATP, and GTP.

Row | Substance | mean arterial blood pressure (normal dogs) | plasma vasopressin levels (normal dogs) | renal blood flow (normal dogs) | prolonged aquaretic and diuretic renal actions (normal dogs; FIGS. 4 and 5) | cGMP activation [1] | aquaretic and natriuretic effects (urinary sodium excretion, urine flow) (normal dogs; FIGS. 4 and 5) | vasodilatory effects (normal dogs) | renal effects as compared to ABC-NP (normal dogs; FIGS. 4 and 5)
1 | ABC-NP1: 33-residue polypeptide: human mature ANP residues 11-15, human mature CNP residues 1-22, human mature BNP residues 27-32 (RMDRIGLSKGCFGLKLDRIGSMSGLGCKVLRRH; combination of SEQ ID NOs1, 7, and 3) | reduction | strong trend for increasing | increase | no prolonged aquaretic and diuretic renal actions observed | activated cGMP |  |  | 
2 | ABC-NP: 33-residue polypeptide: human ANP residues 11-15, human CNP 1-22 with positions 15-17 changed to Arg-Glu-Ala, human BNP residues 27-32 (RMDRIGLSKGCFGLKLDRIREASGLGCKVLRRH; combination of SEQ ID NOs1, 2, and 3) | no effect | did not increase |  |  | did not | resulted in aquaretic and natriuretic effects | does not have vasodilatory effects | 
3 | BC-NP2: 28-residue polypeptide: human CNP 1-22 with positions 15-17 changed to arginine, glutamic acid, alanine, then human BNP residues 27-32 (GLSKGCFGLKLDRIREASGLGCKVLRRH; combination of SEQ ID NOs2 and 3) | did not result in a decrease |  | did not result in a decrease in mean arterial blood pressure or an increase in renal blood flow |  | did not |  | does not have vasodilatory effects | about 50%
4 | BNP: natriuretic peptide of myocardial cell origin; main form a 32 amino acid polypeptide with a ring structure; comparator [reference compound] |  | increased |  |  |  |  |  | 
